Measured values as given in paper PMC8279981, “A first-in-human, phase 1 study of the NEDD8 activating enzyme E1 inhibitor TAS4464 in patients with advanced solid tumors” (Investigational New Drugs, 2021).

Tests used:
[1] = tested on: patients with advanced or metastatic solid tumors; test: Phase 1 study: dose-limiting toxicities and maximum tolerated dose; type: in vivo
Procedure: The highest non-severely toxic dose was derived from a dog toxicology study and was used to calculate a clinical starting dose of 10 mg/m^2, which corresponds to one-sixth of the human-equivalent dose. The maximum tolerated dose (MTD) of TAS4464 was investigated using an accelerated titration design. Initially, the starting TAS4464 dose was 10 mg/m^2 and was followed by an initial accelerated stage (i.e., weekly dosing phase) with 100% dose-step increments (level 1: 10 mg/m^2, level 2: 20 mg/m^2, level 3: 40 mg/m^2, and level 4: 56 mg/m^2). The 100% dose-step increments continued until the occurrence of a grade ≥ 2 drug-related toxicity within Cycle 1; dose-limiting toxicity (DLT) within Cycle 1; the next dose level reaching 60 mg/m^2; or any safety concerns. Thereafter, 40% increments were employed in the standard stage.
In the standard stage, three to six patients were to be enrolled, and the dose was escalated in 40% increments if none of the first three patients experienced a DLT. If one patient experienced a DLT, three additional patients were to be enrolled at the same dose level. If two of three or two of six patients experienced a DLT, the dose escalation was to be ceased. […] Additionally, DLT criteria regarding abnormal liver function and discontinuation criteria for study drug administration were added. The TAS4464 dose level for Day 1 of Cycle 1 was then set to 40 mg/m^2 (level 3).
The primary objective of the study was to investigate DLTs. Treatment-related adverse events (AEs) during the lead-in period and Cycle 1 were included in the assessment of DLT, which was defined as follows: 1) grade 4 neutropenia lasting >7 days or neutropenia requiring treatment; 2) grade 4 thrombocytopenia or thrombocytopenia requiring blood transfusion; 3) febrile neutropenia; 4) grade ≥ 3 nausea, vomiting, or diarrhea lasting >48 h and uncontrolled by treatment; 5) grade ≥ 3 aspartate aminotransferase (AST) increase or alanine aminotransferase (ALT) increase lasting ≥3 days; or 6) any other grade ≥ 3 non-hematologic toxicity.

NAE = details: compared with MLN4924; cited from earlier work
[2] = tested on: hematologic and solid tumor xenograft models; details: cited from earlier work
[3] = set-up: method as in unpublished data; details: TAS4464 combined with TNF-α; ref unpublished data; cited from earlier work
[4] = tested on: 10 cytokines in peripheral blood; test: Cytokines in peripheral blood (Luminex); type: in vivo, human
Procedure: Assessment of pharmacodynamics included evaluation of cullin-NEDD8, p27^Kip1 protein expression, and cytokines in peripheral blood samples. Expression of cullin-NEDD8 protein in peripheral blood mononuclear cells (PBMC) was analyzed using an enzyme-linked immunosorbent assay (ELISA). For the weekly dosing cohorts, changes from baseline in cullin-NEDD8 complexes in the PBMC on Day 1 and Day 2 of Cycle 1 as measured by ELISA were evaluated. For the weekly dosing with lead-in period cohorts, changes from baseline in cullin-NEDD8 complexes on Day 2 were evaluated. Expression of p27^Kip1 protein (cyclin-dependent kinase inhibitor 1B), a substrate of CRL, was determined by immunohistochemistry (IHC). p27^Kip1 IHC was performed on biopsy tumor specimens collected at baseline and Day 2 of Cycle 1, and their staining intensities were assessed using H-Scoring, with the scores compared between baseline and Day 2 of Cycle 1. […]

In the case of CCOc1cccc(F)c1C#Cc1cn([C@@H]2O[C@H](CNS(N)(=O)=O)[C@@H](O)[C@H]2O)c2ncnc(N)c12 [TAS4464], the MTD ([1]; weekly dosing regimen) is reported as “could not be determined”, the “DLT incidence (grade 3 ALT increased and grade 3 AST increased)” value ([1]; weekly dosing with lead-in period, dose level 4 (56 mg/m^2)) is reported as 1/5 and the “DLT incidence (grade 4 ALT increased)” value ([1]; weekly dosing, dose level 4 (56 mg/m^2), DLT-evaluable population) is reported as 1/5 and one of five patients. For the same molecule, the “inhibitory effects in enzyme assays” value (NAE) was “greater inhibitory effects than MLN4924”, the antitumor effects ([2]; several hematologic and solid tumor xenograft models) was “promising antitumor effects” and the weight loss ([2]; xenograft models) was “without notable weight loss”. For the same molecule, the “abnormal liver function tests” value [3] was “Abnormal liver function tests were also observed”, the “expression levels of the 10 cytokines in peripheral blood” value ([4]; five patients, weekly dosing with lead-in period cohort) was “no changes in the expression levels” and the “peak expression of IL-1β, IFNγ, IL-12p40, IL-12p70, IL-17A, IL-1α and IL-2 versus baseline” value ([4]; one patient, weekly dosing with lead-in level 3, Day 3 of Cycle 1) was “more than four times higher than at baseline”.
